Results taken from patent US9113629B2, “4-amino-6-(4-substituted-phenyl)-picolinates and 6-amino-2-(4-substituted-phenyl)-pyrimidine-4-carboxylates and their use as herbicides” (DOW AGROSCIENCES LLC, priority 2013, dated 2015).
Like-named read-outs stand apart in the source and are kept apart here.

Tests used:
[1] = test system: test plant species in Direct Seeded Rice; test: Postemergence herbicidal activity in direct seeded rice (Table 13); format: in vivo; conditions: for GR50 BRAPP / GR80 BRAPP / GR50 CYPSS / GR80 CYPSS / GR50 ECHSS / GR80 ECHSS / GR50 LEFSS / GR80 LEFSS / GR20 ORYSS / GR50 SCPJU / GR80 SCPJU / GR50 SEBEX / GR80 SEBEX: probit analysis; for GR20 ORYSS: ORYSS: Oryza sativa (crop); for pest or weed control at 35 g/ha / pest or weed control at 70 g/ha: post-emergence, 504 h; for pest or weed control at 35 g/ha: 35 g ai/ha; for pest or weed control at 70 g/ha: 70 g ai/ha
Method in brief: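 Visual injury scores (0 no injury to 100 complete kill) taken 20-22 days after treatment were converted by probit analysis into GR20–GR90 doses. Treatment was an overhead track spray at 187 L/ha onto second-to-third true leaf plants, using acetone/DMSO (final 16.2%/0.5%) with Agri-dex crop oil; solvent blank served as control.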

[2] = test system: BROTE: downy brome (Bromus tectorum); test: Post-emergent Test III, herbicidal activity in wheat and barley; format: in vivo; conditions: for pest or weed control at 35 g/ha / pest or weed control at 70 g/ha / pest or weed control at 140 g/ha: Bromus tectorum, post-emergence, 504 h, read-out: Visual Growth Reduction (%) 21 Days After Application BROTE; for pest or weed control at 35 g/ha: 35 g ai/ha; for pest or weed control at 70 g/ha: 70 g ai/ha; for pest or weed control at 140 g/ha: 140 g ai/ha; for GR50 BROTE / GR80 BROTE: probit analysis, 21 days after application; for GR50 BROTE: dose for growth reduction of 50 percent; for GR80 BROTE: dose for growth reduction of 80 percent
Method in brief: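 GR20, GR50, GR80 and GR90 come from probit analysis of visual injury scores (0 = none, 100 = complete kill) taken 21 d after treatment. Foliar application was by track sprayer delivering 187 L/ha at five rates, from high down to 1/16×, onto greenhouse plants at the 2–3 leaf stage, with solvent-blank controls.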

[3] = BRAPP: broadleaf signalgrass, Brachiaria platyphylla
[4] = CYPSS: sedge (Cyperus difformis, esculentus, iria)
[5] = ECHSS: barnyardgrass (Echinochloa crus-galli), junglerice (Echinochloa colonum)
[6] = LEFSS: sprangletop (Leptochloa chinensis, Leptochloa dubia)
[7] = SCPJU: Japanese bulrush, Scirpus juncoides
[8] = SEBEX: hemp sesbania, Sesbania exaltata
[9] = BRAPP: broadleaf signalgrass, Brachiaria platyphylla, read-out: Visual Growth Reduction (%) 21 Days After Application BRAPP
[10] = CYPSS: sedge (Cyperus difformis, esculentus, iria), read-out: Visual Growth Reduction (%) 21 Days After Application CYPSS
[11] = ECHSS: barnyardgrass (Echinochloa crus-galli), junglerice (Echinochloa colonum), read-out: Visual Growth Reduction (%) 21 Days After Application ECHSS
[12] = LEFSS: sprangletop (Leptochloa chinensis, Leptochloa dubia), read-out: Visual Growth Reduction (%) 21 Days After Application LEFSS
[13] = ORYSS: Oryza sativa, read-out: Visual Growth Reduction (%) 21 Days After Application ORYSS
[14] = SCPJU: Japanese bulrush, Scirpus juncoides, read-out: Visual Growth Reduction (%) 21 Days After Application SCPJU
[15] = SEBEX: hemp sesbania, Sesbania exaltata, read-out: Visual Growth Reduction (%) 21 Days After Application SEBEX

| Compound | GR50 BRAPP [1, 3] [g ai/ha] | GR80 BRAPP [1, 3] [g ai/ha] | GR50 CYPSS [1, 4] [g ai/ha] | GR80 CYPSS [1, 4] [g ai/ha] | GR50 ECHSS [1, 5] [g ai/ha] | GR80 ECHSS [1, 5] [g ai/ha] | GR50 LEFSS [1, 6] [g ai/ha] | GR80 LEFSS [1, 6] [g ai/ha] | GR20 ORYSS [1] [g ai/ha] | GR50 SEBEX [1, 8] [g ai/ha] | GR80 SEBEX [1, 8] [g ai/ha] | pest or weed control at 35 g/ha [1, 9] [%] | pest or weed control at 70 g/ha [1, 9] [%] | pest or weed control at 35 g/ha [1, 10] [%] | pest or weed control at 70 g/ha [1, 10] [%] | pest or weed control at 35 g/ha [1, 11] [%] | pest or weed control at 70 g/ha [1, 11] [%] | pest or weed control at 35 g/ha [1, 12] [%] | pest or weed control at 70 g/ha [1, 12] [%] | pest or weed control at 35 g/ha [1, 13] [%] | also measured |
| --- | --- | --- | --- | --- | --- | --- | --- | --- | --- | --- | --- | --- | --- | --- | --- | --- | --- | --- | --- | --- | --- |
| Nc1c(F)c(-c2ccc(Cl)c(F)c2)nc(C(=O)O)c1Cl [Compound 217] | 3 | 5 | 5 | 11 | 1 | 1 | 1 | 3 | 10 | 1 | 1 | 95 to 100 | 95 to 100 | 95 to 100 | 95 to 100 | 95 to 100 | 95 to 100 | 95 to 100 | 95 to 100 | 45 to 59 | GR50 SCPJU [1, 7]: 1 g ai/ha; GR80 SCPJU [1, 7]: 1 g ai/ha; pest or weed control at 70 g/ha [1, 13]: 75 to 84%; pest or weed control at 35 g/ha [1, 14]: 95 to 100%; pest or weed control at 70 g/ha [1, 14]: 95 to 100%; pest or weed control at 35 g/ha [1, 15]: 95 to 100%; pest or weed control at 70 g/ha [1, 15]: 95 to 100%; pest or weed control at 35 g/ha [2]: 75 to 84%; pest or weed control at 70 g/ha [2]: 85 to 94%; pest or weed control at 140 g/ha [2]: 85 to 94%; GR50 BROTE [2]: 15 g ai/ha; GR80 BROTE [2]: 33 g ai/ha |
| Nc1c(F)c(-c2ccc(C(F)(F)F)c(F)c2)nc(C(=O)O)c1Cl [Compound 134] | 3 | 12 | 6 | 13 | 1 | 1 | 6 | 15 | 5 | 1 | 1 | 95 to 100 | 95 to 100 | 95 to 100 | 95 to 100 | 95 to 100 | 95 to 100 | 95 to 100 | 95 to 100 | 60 to 74 | GR50 SCPJU [1, 7]: 1 g ai/ha; GR80 SCPJU [1, 7]: 1 g ai/ha; pest or weed control at 70 g/ha [1, 13]: 85 to 94%; pest or weed control at 70 g/ha [1, 14]: 95 to 100%; pest or weed control at 35 g/ha [1, 15]: 95 to 100%; pest or weed control at 70 g/ha [1, 15]: 95 to 100% |
| Nc1cc(-c2ccc(Br)c(F)c2F)nc(C(=O)O)c1Cl [Compound 91] |  |  |  |  |  |  |  |  |  |  |  |  |  |  |  |  |  |  |  |  | pest or weed control at 35 g/ha [2]: 45 to 59%; pest or weed control at 70 g/ha [2]: 45 to 59%; pest or weed control at 140 g/ha [2]: 30 to 44%; GR50 BROTE [2]: 29 g ai/ha; GR80 BROTE [2]: >140 g ai/ha |
| COC(=O)c1nc(-c2ccc(F)c(F)c2F)c(F)c(N)c1Cl [Compound 186] |  |  |  |  |  |  |  |  |  |  |  |  |  |  |  |  |  |  |  |  | pest or weed control at 35 g/ha [2]: 0 to 29%; pest or weed control at 70 g/ha [2]: 0 to 29%; pest or weed control at 140 g/ha [2]: 0 to 29%; GR50 BROTE [2]: >140 g ai/ha; GR80 BROTE [2]: >140 g ai/ha |
| COC(=O)c1nc(-c2ccc(C(F)(F)F)c(F)c2)c(F)c(N)c1Cl [Compound 165] | 12 | 27 | 19 | 67 | 10 | 24 | 24 | 56 | 44 | 1 | 1 | 85 to 94 | 95 to 100 | 75 to 84 | 75 to 84 | 85 to 94 | 95 to 100 | 0 to 29 | 95 to 100 | 0 to 29 | pest or weed control at 70 g/ha [1, 13]: 30 to 44%; pest or weed control at 35 g/ha [1, 15]: 95 to 100%; pest or weed control at 70 g/ha [1, 15]: 95 to 100% |
| COc1c(N)nc(-c2ccc(Br)c(F)c2F)nc1C(=O)O [Compound 8] | 4 | 9 | 1 | 1 | 2 | 6 | >70 | >70 | 2 | 3 | 5 | 95 to 100 | 95 to 100 | 95 to 100 | 95 to 100 | 95 to 100 | 95 to 100 | 0 to 29 | 30 to 44 | 75 to 84 | GR50 SCPJU [1, 7]: 1 g ai/ha; GR80 SCPJU [1, 7]: 1 g ai/ha; pest or weed control at 70 g/ha [1, 13]: 85 to 94%; pest or weed control at 35 g/ha [1, 14]: 95 to 100%; pest or weed control at 70 g/ha [1, 14]: 95 to 100%; pest or weed control at 35 g/ha [1, 15]: 95 to 100%; pest or weed control at 70 g/ha [1, 15]: 95 to 100% |
| COC(=O)c1nc(-c2ccc(Br)c(F)c2F)nc(N)c1OC [Compound 122, methyl 6-amino-2-(4-bromo-2,3-difluorophenyl)-5-methoxypyrimidine-4-carboxylate] | 5 | 42 | 1 | 1 | 6 | 47 | >70 | >70 | 70 | 1 | 1 | 75 to 84 | 85 to 94 | 95 to 100 | 95 to 100 | 75 to 84 | 85 to 94 | 0 to 29 | 0 to 29 | 0 to 29 | GR50 SCPJU [1, 7]: 1 g ai/ha; GR80 SCPJU [1, 7]: 1 g ai/ha; pest or weed control at 70 g/ha [1, 13]: 0 to 29%; pest or weed control at 35 g/ha [1, 14]: 95 to 100%; pest or weed control at 70 g/ha [1, 14]: 95 to 100%; pest or weed control at 35 g/ha [1, 15]: 95 to 100%; pest or weed control at 70 g/ha [1, 15]: 95 to 100% |
| COC(=O)c1nc(-c2ccc(F)cc2)c(F)c(N)c1Cl [Compound 204] |  |  |  |  |  |  |  |  |  |  |  |  |  |  |  |  |  |  |  |  | pest or weed control at 35 g/ha [2]: 0 to 29%; pest or weed control at 70 g/ha [2]: 0 to 29%; pest or weed control at 140 g/ha [2]: 30 to 44%; GR50 BROTE [2]: >140 g ai/ha; GR80 BROTE [2]: >140 g ai/ha |
